Measurements published in patent US20230234965A1, “N-LINKED MACROCYCLIC 4-(PYRAZOL-5-YL)-INDOLE DERIVATIVES AS INHIBITORS OF MCL-1” (Janssen Pharmaceutica NV, priority 2020, published 2023).

Legend:
[1] = target: Myeloid Cell Leukemia 1 (Mcl-1) (Homo sapiens, UniProt Q07820); assay: Terbium labeled Mcl-1 HTRF binding assay (displacement of Cy5-labeled BIM BH3 peptide); details: 25 pM Tb-Mcl-1, 8 nM Cy5 Bim peptide, [L] = 8 nM, Kd = 10 nM, 60 minutes at room temperature, read-out: Tb-MCL1 Ki
Experimental: Terbium labeled Myeloid Cell Leukemia 1(Mcl-1) homogeneous time-resolved fluorescence (HTRF) binding assay utilizing the BIM BH3 peptide (H2N-(C/Cy5Mal) WIAQELRRIGDEFN-OH) as the binding partner for Mcl-1.
This assay evaluated inhibition of the BH3 domain : Mcl-1 interaction by measuring the displacement of Cy5-labeled BIM BH3 peptide (H2N-(C/Cy5Mal) WIAQELRRIGDEFN-OH) in the HTRF assay format.
The following assay and stock buffers were prepared for use in the assay: (a) Stock buffer: 10 mM Tris-HCl, pH=7.5 + 150 mM NaCl, filtered, sterilized, and stored at 4° C.; and (b) 1X assay buffer, where the following ingredients were added fresh to stock buffer: 2 mM dithiothreitol (DTT), 0.0025% Tween-20, 0.1 mg/mL bovine serum albumin (BSA). The 1X Tb-Mcl-1 + Cy5 Bim peptide solution was prepared by diluting the protein stock solution using the 1X assay buffer (b) to 25 pM Tb-Mcl-1 and 8 nM Cy5 Bim peptide.
Using the Acoustic ECHO, 100 nL of 100x test compound(s) were dispensed into individual wells of a white 384-well Perkin Elmer Proxiplate, for a final compound concentration of 1x and final DMSO concentration of 1%. Inhibitor control and neutral control (NC, 100 nL of 100% DMSO) were stamped into columns 23 and 24 of assay plate, respectively. Into each well of the plate was then dispensed 10µL of the 1X Tb-Mcl-1 + Cy5 Bim peptide solution. The plate was centrifuged with a cover plate at 1000 rpm for 1 minute, then incubated for 60 minutes at room temperature with plates covered. The TR-FRET signal was read on an BMG PHERAStar FSX MicroPlate Reader at room temperature using the HTRF optic module (HTRF: excitation: 337 nm, light source: laser, emission A: 665 nm, emission B: 620 nm, integration start: 60 µs, integration time: 400 µs).
The BMG PHERAStar FSX MicroPlate Reader was used to measure fluorescence intensity at two emission wavelengths - 665 nm and 620 nm - and report relative fluorescence units (RFU) for both emissions, as well as a ratio of the emissions (665 nm/620 nm)*10,000. The RFU values were normalized to percent inhibition as follows: • % inhibition = (((NC - IC) - compound - IC)) / (NC - IC)) *100 where IC (inhibitor control, low signal) = mean signal of 1X Tb-MCl-1 + Cy5 Bim peptide+ inhibitor control or 100% inhibition of Mcl-1; NC (neutral control, high signal) = mean signal 1X Tb-MCl-1 + Cy5 Bim peptide with DMSO only or 0% inhibition An 11-point dose response curve was generated to determine IC50 values (using GenData) based on the following equation:
where Y = % inhibition in the presence of X inhibitor concentration; Top = 100% inhibition derived from the IC (mean signal of Mcl-1 + inhibitor control); Bottom = 0% inhibition derived from the NC (mean signal of Mcl-1 + DMSO); Hillslope = Hill coefficient; and IC50 = concentration of compound with 50% inhibition in relation to top/neutral control (NC).
In this assay [L] = 8 nM and Kd = 10 nM

[2] = tested on: MOLP-8 human multiple myeloma cell line; assay: Caspase-Glo 3/7 apoptosis induction assay in MOLP-8 cells; format: cell-based; details: MOLP8 cells, 2 hours at 37° C.; 30 µM highest conc.; averaged over all runs on all batches
Description: MCL-1 is a regulator of apoptosis and is highly over-expressed in tumor cells that escape cell death. The assay evaluates the cellular potency of small-molecule compounds targeting regulators of the apoptosis pathway, primarily MCL-1, Bfl-1, Bcl-2, and other proteins of the Bcl-2 family. Protein-protein inhibitors disrupting the interaction of anti-apoptotic regulators with BH3-domain proteins initiate apoptosis.
The Caspase-Glo® 3/7 Assay is a luminescent assay that measures caspase-3 and -7 activities in purified enzyme preparations or cultures of adherent or suspension cells. The assay provides a proluminescent caspase-3/7 substrate, which contains the tetrapeptide sequence DEVD. This substrate is cleaved to release aminoluciferin, a substrate of luciferase used in the production of light. Addition of the single Caspase-Glo® 3/7 Reagent in an “add-mix-measure” format results in cell lysis, followed by caspase cleavage of the substrate and generation of a “glow-type” luminescent signal.
This assay uses the MOLP-8 human multiple myeloma cell line, which is sensitive to MCL-1 inhibition.
Cell cultures were maintained between 0.2 and 2.0 ×10^6 cells/mL. The cells were harvested by collection in 50 mL conical tubes. The cells were then pelleted at 500 g for 5 mins before removing supernatant and resuspension in fresh pre-warmed culture medium. The cells were counted and diluted as needed.
The assay reagent was prepared by transferring the buffer solution to the substrate vial and mixing. The solution may be stored for up to 1 week at 4° C. with negligible loss of signal.
Compounds were delivered in assay-ready plates (Proxiplate) and stored at -20° C. Assays always include 1 reference compound plate containing reference compounds. The plates were spotted with 40 nL of compounds (0.5% DMSO final in cells; serial dilution; 30 µM highest conc. ⅓ dilution, 10 doses, duplicates). The compounds were used at room temperature and 4 µL of pre-warmed media was added to all wells except column 2 and 23. The negative control was prepared by adding 1% DMSO in media. The positive control was prepared by adding the appropriate positive control compound in final concentration of 60 µM in media. The plate was prepared by adding 4 µL negative control to column 23, 4 µL positive control to column 2 and 4 µL cell suspension to all wells in the plate. The plate with cells was then incubated at 37° C. for 2 hours. The assay signal reagent is the Caspase-Glo solution described above, and 8 µL was added to all wells. The plates were then sealed and measured after 30 minutes.
The activity of a test compound was calculated as percent change in apoptosis induction as follows:
• %Effect (AC50) = 100 - ((sample-LC) / (HC-LC)) *100 • %Control = (sample /HC)* 100 • %Control min = ((sample-LC) / (HC-LC)) *100

Chain of Myeloid Cell Leukemia 1 (Mcl-1) (Q07820 whole entry): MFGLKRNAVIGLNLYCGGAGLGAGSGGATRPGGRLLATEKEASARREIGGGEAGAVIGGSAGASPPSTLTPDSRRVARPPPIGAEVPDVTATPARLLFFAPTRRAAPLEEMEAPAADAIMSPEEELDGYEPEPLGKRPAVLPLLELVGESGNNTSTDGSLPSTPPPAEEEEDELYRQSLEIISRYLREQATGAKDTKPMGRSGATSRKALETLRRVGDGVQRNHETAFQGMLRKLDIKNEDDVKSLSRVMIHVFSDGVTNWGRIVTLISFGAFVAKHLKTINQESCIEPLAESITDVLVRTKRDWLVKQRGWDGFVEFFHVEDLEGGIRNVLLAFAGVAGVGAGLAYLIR

| SMILES | Ki [1] | AC50 [2] |
| --- | --- | --- |
| Cc1nn2c(c1C)-c1c(Cl)ccc3c1c(C)c(C(=O)O)n3CCCOc1cc(cc3cc(F)ccc13)CCc1cc(nn1C)CCC2 (single isomer, unassigned) [Compound 2] | 3.28 nM | 1930 nM |
| Cc1nn2c(c1C)-c1c(Cl)ccc3c1c(C)c(C(=O)O)n3CCCOc1cc(cc3ccccc13)SCc1cnn(c1)CCC2 (single isomer, unassigned) [Compound 8] | 422 nM | 27500 nM |
| Cc1nn2c(c1C)-c1c(Cl)ccc3c1c(C)c(C(=O)O)n3CCCOc1cc(cc3ccccc13)SCc1cc(nn1C)CCC2 (single isomer, unassigned) [Compound 3] | 0.1 nM | 131 nM |
| Cc1nn2c(c1C)-c1c(Cl)ccc3c1c(C)c(C(=O)O)n3CCCOc1cc(cc3ccccc13)SCc1cn(nn1)CCC2 (single isomer, unassigned) [Compound 5] | 5.21 nM | 8180 nM |
| Cc1nn2c(c1C)-c1c(Cl)ccc3c1c(C)c(C(=O)O)n3CCCOc1cc(cc3cc(F)ccc13)CCc1cc(nn1C)CCC2 (single isomer, unassigned) [Compound 1] | 0.04 nM | 26 nM |
| Cc1nn2c(c1C)-c1c(Cl)ccc3c1c(C)c(C(=O)O)n3CCCOc1cc(cc3ccccc13)SCc1cn(nn1)CCC2 (single isomer, unassigned) [Compound 6] | 445 nM | > 30000 nM |
| Cc1nn2c(c1C)-c1c(Cl)ccc3c1c(C)c(C(=O)O)n3CCCOc1cc(cc3ccccc13)SCc1cc(nn1C)CCC2 (single isomer, unassigned) [Compound 4] | 1.57 nM | 4010 nM |
| Cc1nn2c(c1C)-c1c(Cl)ccc3c1c(C)c(C(=O)O)n3CCCOc1cc(cc3ccccc13)SCc1cnn(c1)CCC2 (single isomer, unassigned) [Compound 7] | 0.95 nM | 3180 nM |
